According to ChEMBL document CHEMBL4507316 (2021):

What was measured:
[1] = tested on: Tyrosine-protein kinase ABL1 (Homo sapiens), P00519 [Y253F]; assay: ABL1 Y253F ProQinase selectivity panel; conditions: Compound concentration 1.0 uM
[2] = target: 5'-AMP-activated protein kinase catalytic subunit alpha-1 (Homo sapiens) (UniProt Q13131); assay: AMPK-alpha1 ProQinase selectivity panel; conditions: Compound concentration 1.0 uM
[3] = target: Aurora kinase B (Homo sapiens) (UniProt Q96GD4); assay: Aurora-B ProQinase selectivity panel; conditions: Compound concentration 1.0 uM
Chain of Aurora kinase B (Homo sapiens) (Q96GD4 whole entry): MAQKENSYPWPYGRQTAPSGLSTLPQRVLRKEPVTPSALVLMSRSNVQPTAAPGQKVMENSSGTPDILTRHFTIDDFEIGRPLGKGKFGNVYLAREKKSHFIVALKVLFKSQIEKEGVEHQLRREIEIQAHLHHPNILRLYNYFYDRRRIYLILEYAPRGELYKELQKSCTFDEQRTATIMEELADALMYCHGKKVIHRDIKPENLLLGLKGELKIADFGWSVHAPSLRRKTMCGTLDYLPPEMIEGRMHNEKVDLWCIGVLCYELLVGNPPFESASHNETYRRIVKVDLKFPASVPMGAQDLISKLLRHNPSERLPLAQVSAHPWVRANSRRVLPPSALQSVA

[4] = target: Tyrosine-protein kinase receptor UFO (Homo sapiens) (UniProt P30530); assay: AXL ProQinase selectivity panel; conditions: Compound concentration 1.0 uM
Chain of Tyrosine-protein kinase receptor UFO (Homo sapiens) (P30530 whole entry): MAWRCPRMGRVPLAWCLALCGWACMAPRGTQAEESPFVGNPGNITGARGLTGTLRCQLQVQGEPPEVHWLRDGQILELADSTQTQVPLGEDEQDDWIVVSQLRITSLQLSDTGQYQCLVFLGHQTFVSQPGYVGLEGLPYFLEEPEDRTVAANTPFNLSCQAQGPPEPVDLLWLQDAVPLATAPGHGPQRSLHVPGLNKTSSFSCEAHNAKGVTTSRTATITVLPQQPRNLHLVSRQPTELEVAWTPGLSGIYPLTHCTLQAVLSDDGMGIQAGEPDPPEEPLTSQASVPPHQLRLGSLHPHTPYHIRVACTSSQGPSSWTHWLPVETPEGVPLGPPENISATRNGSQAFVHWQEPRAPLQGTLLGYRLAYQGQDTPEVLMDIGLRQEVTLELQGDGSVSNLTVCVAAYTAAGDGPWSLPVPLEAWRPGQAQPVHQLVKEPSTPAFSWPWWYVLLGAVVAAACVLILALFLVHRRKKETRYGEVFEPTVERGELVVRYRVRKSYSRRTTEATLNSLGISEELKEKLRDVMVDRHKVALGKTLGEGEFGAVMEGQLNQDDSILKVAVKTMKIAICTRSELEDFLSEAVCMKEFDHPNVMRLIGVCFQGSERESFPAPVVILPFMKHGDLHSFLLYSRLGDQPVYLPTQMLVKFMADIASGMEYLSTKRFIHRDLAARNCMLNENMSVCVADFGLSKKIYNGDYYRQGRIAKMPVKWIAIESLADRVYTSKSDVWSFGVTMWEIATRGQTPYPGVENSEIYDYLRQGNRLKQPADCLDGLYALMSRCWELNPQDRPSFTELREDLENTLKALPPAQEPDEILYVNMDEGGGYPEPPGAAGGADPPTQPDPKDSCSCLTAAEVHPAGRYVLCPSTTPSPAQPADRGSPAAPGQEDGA

[5] = target: Serine/threonine-protein kinase B-raf (Homo sapiens) (UniProt P15056); assay: B-RAF wt ProQinase selectivity panel; conditions: Compound concentration 1.0 uM
[6] = target: Tyrosine-protein kinase BTK (Homo sapiens) (UniProt Q06187); assay: BTK ProQinase selectivity panel; conditions: Compound concentration 1.0 uM
[7] = target: CDK6/cyclin D1 (Homo sapiens) (UniProt P24385+Q00534); assay: CDK6/CycD1 ProQinase selectivity panel; assay type: protein-complex assay; conditions: Compound concentration 1.0 uM
[8] = target: Cyclin-dependent kinase 9 (Homo sapiens) (UniProt P50750); assay: CDK9/CycT ProQinase selectivity panel; conditions: Compound concentration 1.0 uM
[9] = target: Casein kinase II subunit alpha (Homo sapiens) (UniProt P68400); assay: CK2-alpha1 ProQinase selectivity panel; conditions: Compound concentration 1.0 uM
[10] = target: Dual specificity protein kinase CLK3 (Homo sapiens) (UniProt P49761); assay: CLK3 ProQinase selectivity panel; conditions: Compound concentration 1.0 uM
Chain of Dual specificity protein kinase CLK3 (Homo sapiens) (P49761 whole entry, looked up): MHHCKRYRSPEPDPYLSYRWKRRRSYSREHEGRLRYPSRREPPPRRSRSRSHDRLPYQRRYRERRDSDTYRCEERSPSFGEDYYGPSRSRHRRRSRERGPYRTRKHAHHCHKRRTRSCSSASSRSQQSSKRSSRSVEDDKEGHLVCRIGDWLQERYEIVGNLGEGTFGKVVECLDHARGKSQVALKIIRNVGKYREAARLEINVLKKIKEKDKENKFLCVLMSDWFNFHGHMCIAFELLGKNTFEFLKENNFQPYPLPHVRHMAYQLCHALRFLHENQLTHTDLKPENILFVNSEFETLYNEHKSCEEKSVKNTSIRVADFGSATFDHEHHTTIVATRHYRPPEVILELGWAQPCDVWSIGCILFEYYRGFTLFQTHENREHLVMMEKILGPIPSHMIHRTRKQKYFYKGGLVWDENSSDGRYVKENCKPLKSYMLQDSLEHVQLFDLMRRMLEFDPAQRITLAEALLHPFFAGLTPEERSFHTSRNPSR

[11] = target: Eukaryotic elongation factor 2 kinase (Homo sapiens) (UniProt O00418); assay: EEF2K ProQinase selectivity panel; conditions: Compound concentration 1.0 uM
[12] = tested on: Epidermal growth factor receptor (Homo sapiens), P00533 [UNDEFINED MUTATION]; assay: EGF-R d746-750 ProQinase selectivity panel; conditions: Compound concentration 1.0 uM
[13] = tested on: Epidermal growth factor receptor (Homo sapiens), P00533 [L858R]; assay: EGF-R L858R ProQinase selectivity panel; conditions: Compound concentration 1.0 uM
[14] = tested on: Epidermal growth factor receptor (Homo sapiens), P00533 [L861Q]; assay: EGF-R L861Q ProQinase selectivity panel; conditions: Compound concentration 1.0 uM
[15] = tested on: Epidermal growth factor receptor (Homo sapiens), P00533 [T790M]; assay: EGF-R T790M ProQinase selectivity panel; conditions: Compound concentration 1.0 uM
[16] = target: Receptor tyrosine-protein kinase erbB-2 (Homo sapiens) (UniProt P04626); assay: ERBB2 ProQinase selectivity panel; conditions: Compound concentration 1.0 uM
[17] = target: Homeodomain-interacting protein kinase 3 (Homo sapiens) (UniProt Q9H422); assay: HIPK3 ProQinase selectivity panel; conditions: Compound concentration 1.0 uM
[18] = target: Tyrosine-protein kinase JAK2 (Homo sapiens) (UniProt O60674); assay: JAK2 ProQinase selectivity panel; conditions: Compound concentration 1.0 uM
[19] = target: Tyrosine-protein kinase JAK3 (Homo sapiens) (UniProt P52333); assay: JAK3 ProQinase selectivity panel; conditions: Compound concentration 1.0 uM
Chain of Tyrosine-protein kinase JAK3 (Homo sapiens) (P52333 whole entry): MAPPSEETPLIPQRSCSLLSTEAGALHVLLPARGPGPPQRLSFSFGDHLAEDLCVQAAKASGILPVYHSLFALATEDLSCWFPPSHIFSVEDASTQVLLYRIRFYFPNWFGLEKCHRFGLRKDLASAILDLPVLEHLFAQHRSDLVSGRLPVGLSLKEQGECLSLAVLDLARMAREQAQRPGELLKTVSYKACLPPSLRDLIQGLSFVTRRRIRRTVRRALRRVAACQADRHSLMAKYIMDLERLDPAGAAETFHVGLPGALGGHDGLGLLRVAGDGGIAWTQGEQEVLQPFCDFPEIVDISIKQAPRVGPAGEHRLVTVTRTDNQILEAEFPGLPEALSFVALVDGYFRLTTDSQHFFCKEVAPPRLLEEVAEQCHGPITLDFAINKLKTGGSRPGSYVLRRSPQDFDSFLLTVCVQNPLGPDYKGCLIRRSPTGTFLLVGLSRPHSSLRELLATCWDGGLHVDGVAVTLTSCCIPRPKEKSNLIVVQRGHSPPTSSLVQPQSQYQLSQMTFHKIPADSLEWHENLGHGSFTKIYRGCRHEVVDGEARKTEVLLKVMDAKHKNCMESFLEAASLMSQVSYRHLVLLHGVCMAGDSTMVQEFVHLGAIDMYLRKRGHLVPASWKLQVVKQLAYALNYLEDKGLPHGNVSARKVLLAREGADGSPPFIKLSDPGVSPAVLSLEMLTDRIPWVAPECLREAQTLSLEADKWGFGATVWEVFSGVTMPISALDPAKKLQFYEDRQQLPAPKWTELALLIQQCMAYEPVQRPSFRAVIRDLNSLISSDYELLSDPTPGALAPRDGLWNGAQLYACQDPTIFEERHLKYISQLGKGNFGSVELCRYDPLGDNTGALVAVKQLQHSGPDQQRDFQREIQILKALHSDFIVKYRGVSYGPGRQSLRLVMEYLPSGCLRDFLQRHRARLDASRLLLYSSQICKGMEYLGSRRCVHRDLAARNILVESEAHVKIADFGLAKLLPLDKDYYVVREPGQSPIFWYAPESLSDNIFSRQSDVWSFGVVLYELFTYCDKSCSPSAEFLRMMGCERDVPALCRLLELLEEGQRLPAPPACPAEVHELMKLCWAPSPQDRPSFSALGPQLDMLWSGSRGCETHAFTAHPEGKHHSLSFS

[20] = target: Tyrosine-protein kinase Lck (Homo sapiens) (UniProt P06239); assay: LCK ProQinase selectivity panel; conditions: Compound concentration 1.0 uM
[21] = tested on: Leucine-rich repeat serine/threonine-protein kinase 2 (Homo sapiens), Q5S007 [I2020T]; assay: LRRK2 I2020T ProQinase selectivity panel; conditions: Compound concentration 1.0 uM
[22] = tested on: Leucine-rich repeat serine/threonine-protein kinase 2 (Homo sapiens), Q5S007 [R1441C]; assay: LRRK2 R1441C ProQinase selectivity panel; conditions: Compound concentration 1.0 uM
[23] = target: Leukocyte tyrosine kinase receptor (Homo sapiens) (UniProt P29376); assay: LTK ProQinase selectivity panel; conditions: Compound concentration 1.0 uM
[24] = target: Muscle, skeletal receptor tyrosine-protein kinase (Homo sapiens) (UniProt O15146); assay: MUSK ProQinase selectivity panel; conditions: Compound concentration 1.0 uM
Chain of Muscle, skeletal receptor tyrosine-protein kinase (Homo sapiens) (O15146 whole entry): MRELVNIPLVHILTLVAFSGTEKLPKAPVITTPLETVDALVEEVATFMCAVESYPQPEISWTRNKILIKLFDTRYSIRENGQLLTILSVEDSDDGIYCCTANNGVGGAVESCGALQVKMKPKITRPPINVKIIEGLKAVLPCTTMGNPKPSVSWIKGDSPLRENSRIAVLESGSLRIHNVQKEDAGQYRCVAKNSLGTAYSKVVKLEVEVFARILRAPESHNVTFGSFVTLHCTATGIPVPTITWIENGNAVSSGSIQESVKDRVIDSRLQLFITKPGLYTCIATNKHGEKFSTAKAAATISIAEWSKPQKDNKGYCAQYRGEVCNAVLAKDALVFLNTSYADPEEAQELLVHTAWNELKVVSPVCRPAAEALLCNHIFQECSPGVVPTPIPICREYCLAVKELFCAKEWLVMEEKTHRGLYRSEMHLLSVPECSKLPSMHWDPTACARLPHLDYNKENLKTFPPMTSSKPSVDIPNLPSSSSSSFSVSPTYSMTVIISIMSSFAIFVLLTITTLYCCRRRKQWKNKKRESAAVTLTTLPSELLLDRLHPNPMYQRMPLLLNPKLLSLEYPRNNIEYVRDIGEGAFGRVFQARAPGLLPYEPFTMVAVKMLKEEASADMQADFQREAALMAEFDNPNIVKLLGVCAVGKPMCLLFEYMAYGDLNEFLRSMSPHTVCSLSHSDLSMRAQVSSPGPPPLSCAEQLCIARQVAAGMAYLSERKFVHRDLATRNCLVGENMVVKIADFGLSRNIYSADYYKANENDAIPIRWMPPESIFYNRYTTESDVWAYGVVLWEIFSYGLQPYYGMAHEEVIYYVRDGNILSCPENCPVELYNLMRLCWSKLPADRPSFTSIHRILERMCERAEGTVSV

[25] = target: Serine/threonine-protein kinase Nek6 (Homo sapiens) (UniProt Q9HC98); assay: NEK6 ProQinase selectivity panel; conditions: Compound concentration 1.0 uM
[26] = target: Phosphorylase b kinase gamma catalytic chain, skeletal muscle/heart isoform (Homo sapiens) (UniProt Q16816); assay: PHKG1 ProQinase selectivity panel; conditions: Compound concentration 1.0 uM
[27] = target: Serine/threonine-protein kinase pim-1 (Homo sapiens) (UniProt P11309); assay: PIM1 ProQinase selectivity panel; conditions: Compound concentration 1.0 uM
[28] = target: Serine/threonine-protein kinase pim-2 (Homo sapiens) (UniProt Q9P1W9); assay: PIM2 ProQinase selectivity panel; conditions: Compound concentration 1.0 uM
[29] = target: Protein kinase C beta type (Homo sapiens) (UniProt P05771); assay: PKC-beta1 ProQinase selectivity panel; conditions: Compound concentration 1.0 uM
[30] = target: Protein kinase C zeta type (Homo sapiens) (UniProt Q05513); assay: PKC-zeta ProQinase selectivity panel; conditions: Compound concentration 1.0 uM
Chain of Protein kinase C zeta type (Homo sapiens) (Q05513 whole entry): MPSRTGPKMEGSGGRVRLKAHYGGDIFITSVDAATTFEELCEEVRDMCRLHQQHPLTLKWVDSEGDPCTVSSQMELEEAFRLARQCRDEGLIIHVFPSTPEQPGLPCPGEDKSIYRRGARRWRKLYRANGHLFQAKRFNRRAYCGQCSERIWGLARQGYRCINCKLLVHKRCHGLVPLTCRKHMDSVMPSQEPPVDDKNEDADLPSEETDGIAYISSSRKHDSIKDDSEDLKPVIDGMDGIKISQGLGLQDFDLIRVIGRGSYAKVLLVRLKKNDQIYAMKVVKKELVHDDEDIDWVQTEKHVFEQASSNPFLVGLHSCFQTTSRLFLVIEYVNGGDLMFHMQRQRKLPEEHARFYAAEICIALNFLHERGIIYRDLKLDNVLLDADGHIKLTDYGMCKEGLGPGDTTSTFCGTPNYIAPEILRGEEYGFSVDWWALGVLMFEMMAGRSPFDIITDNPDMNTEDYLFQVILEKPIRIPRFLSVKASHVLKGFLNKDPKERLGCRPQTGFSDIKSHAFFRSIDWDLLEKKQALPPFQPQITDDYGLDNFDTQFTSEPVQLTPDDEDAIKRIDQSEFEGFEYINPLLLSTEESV

[31] = tested on: RAF proto-oncogene serine/threonine-protein kinase (Homo sapiens), P04049 [Y340D,Y341D]; assay: RAF1 Y340D/Y341D ProQinase selectivity panel; conditions: Compound concentration 1.0 uM
[32] = tested on: Proto-oncogene tyrosine-protein kinase receptor Ret (Homo sapiens), P07949 [V804L]; assay: RET V804L ProQinase selectivity panel; conditions: Compound concentration 1.0 uM
[33] = target: Rho-associated protein kinase 1 (Homo sapiens) (UniProt Q13464); assay: ROCK1 ProQinase selectivity panel; conditions: Compound concentration 1.0 uM
[34] = target: Serine/threonine-protein kinase Sgk2 (Homo sapiens) (UniProt Q9HBY8); assay: SGK2 ProQinase selectivity panel; conditions: Compound concentration 1.0 uM
[35] = target: Serine/threonine-protein kinase Sgk3 (Homo sapiens) (UniProt Q96BR1); assay: SGK3 ProQinase selectivity panel; conditions: Compound concentration 1.0 uM
[36] = target: SRSF protein kinase 3 (Homo sapiens) (UniProt Q9UPE1); assay: STK23 ProQinase selectivity panel; conditions: Compound concentration 1.0 uM
[37] = target: Tyrosine-protein kinase Tec (Homo sapiens) (UniProt P42680); assay: TEC ProQinase selectivity panel; conditions: Compound concentration 1.0 uM
[38] = target: Tyrosine-protein kinase TXK (Homo sapiens) (UniProt P42681); assay: TXK ProQinase selectivity panel; conditions: Compound concentration 1.0 uM
[39] = target: Tyrosine-protein kinase receptor TYRO3 (Homo sapiens) (UniProt Q06418); assay: TYRO3 ProQinase selectivity panel; conditions: Compound concentration 1.0 uM
[40] = target: Vascular endothelial growth factor receptor 1 (Homo sapiens) (UniProt P17948); assay: VEGF-R1 ProQinase selectivity panel; conditions: Compound concentration 1.0 uM
[41] = target: 5-hydroxytryptamine receptor 1B (Homo sapiens) (UniProt P28222); conditions: Compound concentration 10.0 uM
[42] = target: 5-hydroxytryptamine receptor 5A (Homo sapiens) (UniProt P47898); conditions: Compound concentration 10.0 uM
[43] = target: D(4) dopamine receptor (Homo sapiens) (UniProt P21917); conditions: Compound concentration 10.0 uM
[44] = target: Sodium-dependent serotonin transporter (Homo sapiens) (UniProt P31645); conditions: Compound concentration 10.0 uM
Chain of Sodium-dependent serotonin transporter (Homo sapiens) (P31645 whole entry, looked up): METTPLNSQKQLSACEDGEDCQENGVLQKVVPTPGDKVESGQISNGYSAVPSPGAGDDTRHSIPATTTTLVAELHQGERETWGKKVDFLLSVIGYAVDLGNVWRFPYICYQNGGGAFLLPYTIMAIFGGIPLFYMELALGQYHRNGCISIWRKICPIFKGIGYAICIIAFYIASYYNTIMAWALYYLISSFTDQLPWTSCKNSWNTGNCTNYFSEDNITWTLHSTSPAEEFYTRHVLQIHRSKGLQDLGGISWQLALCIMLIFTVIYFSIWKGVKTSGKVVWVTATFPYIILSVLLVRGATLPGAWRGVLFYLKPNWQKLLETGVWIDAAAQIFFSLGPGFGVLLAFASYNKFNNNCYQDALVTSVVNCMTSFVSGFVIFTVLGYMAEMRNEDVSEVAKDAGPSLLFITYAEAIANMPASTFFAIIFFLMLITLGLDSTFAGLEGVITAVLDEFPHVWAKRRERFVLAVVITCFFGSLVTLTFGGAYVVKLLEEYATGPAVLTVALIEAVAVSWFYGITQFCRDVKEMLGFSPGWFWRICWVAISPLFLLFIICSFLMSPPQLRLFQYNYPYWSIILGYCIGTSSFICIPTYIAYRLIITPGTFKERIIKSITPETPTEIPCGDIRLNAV

[45] = target: Kappa-type opioid receptor (Homo sapiens) (UniProt P41145); conditions: Compound concentration 10.0 uM
[46] = target: Alpha-2A adrenergic receptor (Homo sapiens) (UniProt P08913); conditions: Compound concentration 10.0 uM
[47] = target: Muscarinic acetylcholine receptor M2 (Homo sapiens) (UniProt P08172); conditions: Compound concentration 10.0 uM
[48] = target: Alpha-1D adrenergic receptor (Homo sapiens) (UniProt P25100); conditions: Compound concentration 10.0 uM
[49] = target: Sigma non-opioid intracellular receptor 1 (Homo sapiens) (UniProt Q99720); conditions: Compound concentration 10.0 uM

O=C1c2ccc(Nc3ccc(F)cc3F)cc2CCc2ccc(OC[C@H](O)CO)cc21 [Skepinone-L]
inactive: % Residual activity with Skepinone-L [1] 88% | % Residual activity with Skepinone-L [2] 84% | % Residual activity with Skepinone-L [3] 96% | % Residual activity with Skepinone-L [4] 100% | % Residual activity with Skepinone-L [5] 112% | % Residual activity with Skepinone-L [6] 100% | % Residual activity with Skepinone-L [7] 88% | % Residual activity with Skepinone-L [8] 103% | % Residual activity with Skepinone-L [9] 95% | % Residual activity with Skepinone-L [10] 88% | % Residual activity with Skepinone-L [11] 88% | % Residual activity with Skepinone-L [12] 100% | % Residual activity with Skepinone-L [13] 89% | % Residual activity with Skepinone-L [14] 94% | % Residual activity with Skepinone-L [15] 119% | % Residual activity with Skepinone-L [16] 91% | % Residual activity with Skepinone-L [17] 91% | % Residual activity with Skepinone-L [18] 90% | % Residual activity with Skepinone-L [19] 103% | % Residual activity with Skepinone-L [20] 102% | % Residual activity with Skepinone-L [21] 94% | % Residual activity with Skepinone-L [22] 89% | % Residual activity with Skepinone-L [23] 97% | % Residual activity with Skepinone-L [24] 106% | % Residual activity with Skepinone-L [25] 97% | % Residual activity with Skepinone-L [26] 93% | % Residual activity with Skepinone-L [27] 105% | % Residual activity with Skepinone-L [28] 97% | % Residual activity with Skepinone-L [29] 103% | % Residual activity with Skepinone-L [30] 109% | % Residual activity with Skepinone-L [31] 91% | % Residual activity with Skepinone-L [32] 115% | % Residual activity with Skepinone-L [33] 97% | % Residual activity with Skepinone-L [34] 89% | % Residual activity with Skepinone-L [35] 102% | % Residual activity with Skepinone-L [36] 96% | % Residual activity with Skepinone-L [37] 115% | % Residual activity with Skepinone-L [38] 93% | % Residual activity with Skepinone-L [39] 108% | % Residual activity with Skepinone-L [40] 113% | inhibition [41] 15.2% | inhibition [42] 13.8% | inhibition [43] 9.38% | inhibition [44] 20.7% | inhibition [45] -4% | inhibition [46] 39.6% | inhibition [47] 40% | inhibition [48] 19.5% | inhibition [49] 48.5%
